Data published in publication PMC12715762, “Discovery of VU6052254: A Novel, Potent M1 Positive Allosteric Modulator” (ACS Chemical Neuroscience, 2025).
Entries after “also recorded” stand apart in the source; their conditions may differ.

What was measured:
[1] = plasma protein binding, equilibrium dialysis (rat); format: in vitro ADME; details: pH 7.4, rat (r), read-out: fu,plasma
Description: (§1) Plasma protein binding and Brain homogenate binding: Determination of fraction unbound (f u) in plasma was conducted in vitro via equilibrium dialysis using HTDialysis (HTD) membrane plates. The top half of the plate was filled with 100 uL of Dubelco’s Phosphate Buffered Saline, pH 7.4 (DPBS). Compounds were diluted into plasma from each species (5 µM final concentration), which was aliquoted in triplicate to the ‘bottom half’ of the prepared HTD plate wells. The HTD plate was sealed and incubated for 6 hours at 37 °C. Following incubation, each well (both top and bottom halves) were transferred (20 µL) to the corresponding wells of a 96-shallow-well (V-bottom) plate. […]
(§2) The unbound fraction (f u) was calculated following the equation below, and mean values for each species were calculated from 3 replicates.
(§3) A similar approach was used to determine the degree of brain homogenate binding, which employed the same methodology and procedure with the following modifications: 1) a final compound concentration of 1 μM was used, 2) naïve rat brains were homogenized in DPBS (1:3 composition of brain: DPBS, w/w) using a Mini-Bead Beater™ machine in order to obtain brain homogenate, which was then treated in the same manner as the plasma samples in the previously described plasma protein binding assay. Fraction unbound for both plasma and brain samples was determined using Equation 4. […]

[2] = plasma protein binding, equilibrium dialysis (dog); format: in vitro ADME; details: pH 7.4, dog (d), read-out: fu,plasma
Description: as §1, §2, §3

[3] = brain homogenate binding (rat); format: in vitro ADME; details: pH 7.4, rat (r), read-out: fu,brain
Description: as §1, §2, §3

CYP450 = assay: time-dependent CYP450 inhibition; format: in vitro ADME; details: result in words
multispecies PK, summary = format: in vivo; details: rat, dog, NHP, plasma, across nonclinical species
mice = assay: modified Irwin neurological test battery; format: in vivo, mouse; details: result in words
Description: To assess peripheral cholinergic toxicity, a modified Irwin neurological battery was performed to score autonomic or somatosensory side effects (Figure ).

[4] = rat oral dose escalation PK study; format: in vivo; details: for AUC(0-t) / Cmax / AUC / Tmax: Sprague-Dawley, plasma; for Cmax / AUC / Tmax: rat, po
Description: Pharmacokinetic profiles in rats following oral single escalating doses Single escalating oral dosing in Sprague-Dawley rats was performed at Frontage Laboratories according to their non-GLP Standard Operating Procedure and IACUC protocols. In short, […]
arterial blood was collected from a femoral artery catheter, and compound concentration was determined in plasma by LC-MS/MS following their non-GLP protocol. PK parameters were determined using Phoenix WinNonlin software (version 6.3). […]

Estrogen ERα = Estrogen ERα (Homo sapiens, UniProt P03372); assay: Eurofins radioligand binding
GABAB1A = GABAB1A (Homo sapiens, UniProt Q9UBS5); assay: Eurofins radioligand binding
Neuropeptide Y Y1 = Neuropeptide Y Y1 (Homo sapiens, UniProt P25929); assay: Eurofins radioligand binding
Opiate μ (OP3, MOP) = Opiate μ (OP3, MOP) (Homo sapiens, UniProt P35372); assay: Eurofins radioligand binding
Purinergic P2X = assay: Eurofins radioligand binding; details: Rat
Thyroid Hormone = assay: Eurofins radioligand binding; details: Rat
[5] = target: Transporter, Serotonin (SERT) (Homo sapiens, UniProt P31645); assay: Eurofins radioligand binding
[6] = 10 mg/kg, rat PO 10 mpk, 10% Tween
[7] = 10 mg/kg, rat PO 10 mpk, 100% PEG
[8] = 30 mg/kg, rat PO 30 mpk, 10% Tween
[9] = 30 mg/kg, rat PO 30 mpk, 100% PEG
[10] = 100 mg/kg, rat PO 100 mpk, 10% Tween
[11] = 100 mg/kg, rat PO 100 mpk, 100% PEG

GABAB1A, sequence (Q9UBS5 15-961 limits assumed): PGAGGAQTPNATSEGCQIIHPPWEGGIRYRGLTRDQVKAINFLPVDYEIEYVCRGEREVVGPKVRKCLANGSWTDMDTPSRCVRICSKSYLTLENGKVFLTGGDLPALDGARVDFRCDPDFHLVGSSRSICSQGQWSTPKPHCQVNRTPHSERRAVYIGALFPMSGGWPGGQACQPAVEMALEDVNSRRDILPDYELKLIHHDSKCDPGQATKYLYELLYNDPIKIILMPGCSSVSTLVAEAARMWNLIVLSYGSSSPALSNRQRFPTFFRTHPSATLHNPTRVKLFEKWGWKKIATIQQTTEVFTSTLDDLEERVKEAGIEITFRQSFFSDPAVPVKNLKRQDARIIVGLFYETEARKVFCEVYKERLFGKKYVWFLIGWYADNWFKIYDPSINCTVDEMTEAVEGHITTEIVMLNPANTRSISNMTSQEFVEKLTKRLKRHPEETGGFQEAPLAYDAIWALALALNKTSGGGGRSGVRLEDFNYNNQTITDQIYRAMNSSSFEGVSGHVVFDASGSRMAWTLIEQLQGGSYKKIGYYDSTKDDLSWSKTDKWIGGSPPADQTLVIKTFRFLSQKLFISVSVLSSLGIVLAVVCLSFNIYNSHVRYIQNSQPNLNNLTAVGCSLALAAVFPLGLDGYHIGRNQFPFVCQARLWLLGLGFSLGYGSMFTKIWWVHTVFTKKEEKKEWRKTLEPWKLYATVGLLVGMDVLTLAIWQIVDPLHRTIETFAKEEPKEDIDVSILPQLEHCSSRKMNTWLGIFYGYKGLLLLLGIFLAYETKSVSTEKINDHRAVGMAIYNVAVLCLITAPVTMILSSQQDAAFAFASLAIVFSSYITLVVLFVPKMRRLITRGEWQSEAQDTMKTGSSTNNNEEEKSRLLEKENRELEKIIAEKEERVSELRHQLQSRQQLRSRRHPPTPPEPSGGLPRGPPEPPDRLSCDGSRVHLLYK
GABAB1A, sequence (O75899 42-941 partner): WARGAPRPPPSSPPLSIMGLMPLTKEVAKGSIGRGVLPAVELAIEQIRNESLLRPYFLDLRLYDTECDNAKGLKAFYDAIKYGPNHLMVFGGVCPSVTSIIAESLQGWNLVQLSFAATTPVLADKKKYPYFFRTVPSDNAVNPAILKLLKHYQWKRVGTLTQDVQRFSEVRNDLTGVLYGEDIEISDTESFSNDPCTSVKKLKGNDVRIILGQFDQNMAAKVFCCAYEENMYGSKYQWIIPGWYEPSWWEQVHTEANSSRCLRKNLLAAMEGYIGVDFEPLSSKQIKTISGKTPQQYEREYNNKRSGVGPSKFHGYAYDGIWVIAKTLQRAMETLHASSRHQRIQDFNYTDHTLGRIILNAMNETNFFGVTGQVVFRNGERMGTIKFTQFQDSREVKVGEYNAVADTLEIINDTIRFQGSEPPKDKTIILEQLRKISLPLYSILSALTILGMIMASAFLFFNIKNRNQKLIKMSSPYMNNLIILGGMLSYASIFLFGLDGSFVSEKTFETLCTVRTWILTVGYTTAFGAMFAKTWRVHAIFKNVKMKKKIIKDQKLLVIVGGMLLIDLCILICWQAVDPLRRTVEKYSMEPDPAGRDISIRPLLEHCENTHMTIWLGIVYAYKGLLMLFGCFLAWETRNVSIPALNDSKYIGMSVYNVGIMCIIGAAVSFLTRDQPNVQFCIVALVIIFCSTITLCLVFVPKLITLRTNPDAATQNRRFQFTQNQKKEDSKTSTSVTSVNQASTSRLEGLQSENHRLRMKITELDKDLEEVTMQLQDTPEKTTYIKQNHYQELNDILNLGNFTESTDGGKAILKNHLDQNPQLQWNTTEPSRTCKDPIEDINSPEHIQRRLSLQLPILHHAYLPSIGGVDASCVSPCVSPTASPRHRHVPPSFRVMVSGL
Estrogen ERα, sequence (P03372 whole entry): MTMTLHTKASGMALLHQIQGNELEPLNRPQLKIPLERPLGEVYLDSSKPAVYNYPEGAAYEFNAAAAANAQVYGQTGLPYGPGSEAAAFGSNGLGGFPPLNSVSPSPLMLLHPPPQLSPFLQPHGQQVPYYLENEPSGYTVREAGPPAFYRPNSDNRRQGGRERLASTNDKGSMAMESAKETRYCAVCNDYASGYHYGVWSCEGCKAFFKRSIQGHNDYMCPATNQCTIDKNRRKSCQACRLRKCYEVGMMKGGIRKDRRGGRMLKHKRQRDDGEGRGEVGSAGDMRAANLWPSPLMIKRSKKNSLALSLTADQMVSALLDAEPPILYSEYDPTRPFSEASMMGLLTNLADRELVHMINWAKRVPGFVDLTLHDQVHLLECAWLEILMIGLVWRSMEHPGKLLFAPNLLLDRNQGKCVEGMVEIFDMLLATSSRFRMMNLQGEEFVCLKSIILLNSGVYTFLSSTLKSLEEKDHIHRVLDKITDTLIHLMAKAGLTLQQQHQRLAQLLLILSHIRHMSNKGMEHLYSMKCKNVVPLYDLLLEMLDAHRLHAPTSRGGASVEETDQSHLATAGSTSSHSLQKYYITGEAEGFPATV
Transporter, Serotonin (SERT), sequence (P31645 whole entry): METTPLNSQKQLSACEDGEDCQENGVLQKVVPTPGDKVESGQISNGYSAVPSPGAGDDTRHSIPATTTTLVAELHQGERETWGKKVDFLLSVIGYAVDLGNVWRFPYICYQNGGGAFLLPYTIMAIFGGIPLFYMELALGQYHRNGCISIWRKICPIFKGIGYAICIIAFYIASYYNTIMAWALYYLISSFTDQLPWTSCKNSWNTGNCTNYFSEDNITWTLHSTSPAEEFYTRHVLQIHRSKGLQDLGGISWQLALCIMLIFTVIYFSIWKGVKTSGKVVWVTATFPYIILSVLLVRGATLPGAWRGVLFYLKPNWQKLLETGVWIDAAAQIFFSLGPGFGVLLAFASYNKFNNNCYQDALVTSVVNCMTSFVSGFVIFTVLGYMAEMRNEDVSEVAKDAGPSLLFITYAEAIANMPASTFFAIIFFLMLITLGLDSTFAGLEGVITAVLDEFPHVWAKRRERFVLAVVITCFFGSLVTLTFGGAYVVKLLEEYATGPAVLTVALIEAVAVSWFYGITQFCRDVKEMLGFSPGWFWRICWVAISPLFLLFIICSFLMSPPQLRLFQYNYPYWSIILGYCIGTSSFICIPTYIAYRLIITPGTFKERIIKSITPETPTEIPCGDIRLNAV
Neuropeptide Y Y1, sequence (P25929 whole entry): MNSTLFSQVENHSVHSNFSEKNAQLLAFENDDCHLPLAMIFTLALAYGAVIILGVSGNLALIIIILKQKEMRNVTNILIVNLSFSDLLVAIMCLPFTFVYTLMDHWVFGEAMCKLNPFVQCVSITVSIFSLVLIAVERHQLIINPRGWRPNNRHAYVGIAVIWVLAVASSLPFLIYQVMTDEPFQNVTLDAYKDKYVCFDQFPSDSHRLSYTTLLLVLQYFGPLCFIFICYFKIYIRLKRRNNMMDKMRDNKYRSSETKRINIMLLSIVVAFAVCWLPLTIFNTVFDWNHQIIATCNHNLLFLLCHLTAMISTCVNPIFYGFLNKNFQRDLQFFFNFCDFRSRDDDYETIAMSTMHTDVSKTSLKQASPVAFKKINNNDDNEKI
Opiate μ (OP3, MOP), sequence (P35372 whole entry): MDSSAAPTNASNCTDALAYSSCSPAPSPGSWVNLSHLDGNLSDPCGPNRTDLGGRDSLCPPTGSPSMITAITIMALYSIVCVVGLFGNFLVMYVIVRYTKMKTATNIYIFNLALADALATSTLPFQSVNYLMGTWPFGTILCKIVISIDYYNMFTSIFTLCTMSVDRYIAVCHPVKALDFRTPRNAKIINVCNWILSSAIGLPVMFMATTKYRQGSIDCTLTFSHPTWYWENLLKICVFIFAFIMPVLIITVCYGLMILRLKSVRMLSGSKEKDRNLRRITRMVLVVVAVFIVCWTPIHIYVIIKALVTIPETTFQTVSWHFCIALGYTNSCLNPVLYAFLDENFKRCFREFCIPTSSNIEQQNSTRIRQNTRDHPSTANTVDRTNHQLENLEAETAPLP

Work on `Cn1cc2c(-c3cc(F)c(CN4Cc5ncccc5C4=O)c(F)c3)ccc(C(C)(C)O)c2n1` [compound 7] yielded a fraction unbound at 6 h, 5 µM [1] of 0.023, a fraction unbound at 6 h, 5 µM [2] of 0.117 and a fraction unbound at 6 h, 1 μM [3] of 0.027. For the same molecule, the “time-dependent CYP450 inhibition” value (CYP450) was “no evidence of time-dependent inhibition; also recorded: no CYP450 inhibition or time-dependent CYP450 inhibition liabilities”, the bioavailability (multispecies PK, summary; read-out: %F, multispecies) was > 65% and the clearance (multispecies PK, summary; read-out: Clp s, multispecies) was < 0.6 L/h/kg. For the same molecule, the “adverse effects / SLUDGE in modified Irwin battery” value (shortened to “adverse effects / SLUDGE”) (mice; 56.6 mg/kg IP, 6 h time course) was “minimal adverse effects or SLUDGE were noted”, the “adverse effects / SLUDGE” value (mice; 56.6 mg/kg IP, 6 h time course, listed as VU6052254) was “minimal adverse cholinergic events (SLUDGE) were noted” and the “adverse effects / SLUDGE” value (mice; 100 mg/kg IP) was “more pronounced adverse effects seen”. For the same molecule, the “adverse effects / SLUDGE” value (mice; 100 mg/kg IP, listed as VU6052254) was “adverse cholinergic events (SLUDGE) were noted”, the AUC(0-t) ([4]; rat PO 10 mg/kg, 10% aqueous Tween 80 suspension) was 23.8 µg·h/mL and the AUC(0-t) ([4]; rat PO 30 mg/kg, 10% aqueous Tween 80 suspension) was 66.5 µg·h/mL. For the same molecule, the AUC(0-t) ([4]; rat PO 100 mg/kg, 10% aqueous Tween 80 suspension) was 96.2 µg·h/mL, the Cmax ([4]; 10 mg/kg, rat PO 10 mg/kg, 10% aqueous Tween 80 suspension) was 2.34 µg/mL and the AUC [4, 6] was 23.8 µg·h/mL. The Tmax [4, 6] was 2.17 h, the AUC [4, 7] was 20.6 µg·h/mL and the Cmax [4, 7] was 2.39 µg/mL. For the same molecule, the Tmax [4, 7] was 3.33 h, the Cmax ([4]; 30 mg/kg, rat PO 30 mg/kg, 10% aqueous Tween 80 suspension) was 7.64 µg/mL and the AUC [4, 8] was 66.7 µg·h/mL. The Tmax [4, 8] was 2.67 h, the AUC [4, 9] was 115 µg·h/mL and the Cmax [4, 9] was 12.2 µg/mL. The Tmax [4, 9] was 4 h, the Cmax ([4]; 100 mg/kg, rat PO 100 mg/kg, 10% aqueous Tween 80 suspension) was 10.9 µg/mL and the AUC [4, 10] was 96.8 µg·h/mL. The Tmax [4, 10] was 4 h, the AUC [4, 11] was 316 µg·h/mL and the Cmax [4, 11] was 24.7 µg/mL. For the same molecule, the Tmax [4, 11] was 4 h, the “cholinergic signs or adverse events in rat dose escalation” value ([4]; result in words) was “no cholinergic signs or adverse events were noted in rats” and the inhibition at 10 µM (Estrogen ERα) was 12%. For the same molecule, the inhibition at 10 µM (GABAB1A) was 7%, the inhibition at 10 µM (Neuropeptide Y Y1) was -10% and the inhibition at 10 µM (Opiate μ (OP3, MOP)) was 2%. The “% Inhibition at 10 µM” value (Purinergic P2X) was 4%, the “% Inhibition at 10 µM” value (Thyroid Hormone) was -1% and the inhibition at 10 µM [5] was -1%.
